The results in this text go back to patent EP0755938B1, “Ligated polyoxometalates and method for their synthesis” (THE B.F. GOODRICH COMPANY, priority 1995, dated 1997).

Series [1] is described as follows: Solubility of the isolated product in organic solvents, as noted in the synthesis examples. In kind it is physicochemical.
The nature of series [2]: Solubility test in hexane (Table 1). In kind it is physicochemical.
The nature of series [3]: Catalytic activity test: gel time in polymerizing dicyclopentadiene under RIM conditions. As to conditions: 4°C temperature rise from the initial temperature of 40°C; A and B components mixed in adiabatic chamber; Component B 0.66 wt. percent polyoxometalate catalyst. As for the experimental part:
The ligated polyoxomolybdate produced in Examples 1-4 were tested for their activity in polymerizing dicyclopentadiene under conditions of a RIM procedure.
Reaction injection molding components were prepared with the following recipes: Component A contained 88.2 wt. percent dicyclopentadiene/7.17 wt. percent cyclopentadiene trimer/3.52 wt. percent butadiene elastomer/0.5 wt. percent diethylaluminumchloride/0.25 wt. percent 2,4-dimethyl-3-pentanol/0.09 wt. percent n-propyl alcohol/0.18 wt. percent silicon tetrachloride.
Component B contained 88.63 wt. percent dicyclopentadiene/7.19 wt. percent cyclopentadiene trimer 3.52 wt. percent butadiene elastomer/0.66 wt. percent polyoxometalate catalyst.
The A and B components were reactivity tested using two pistons and a static mixer. The A and B components were first drawn into their respective piston of the reactivity tester. The components were then heated to 40°C inside the pistons. Next, the contents of the A and B component pistons of the reactivity tester were emptied through a static mixer into a disposable adiabatic chamber.
The temperature increase during the polymerization in the adiabatic chamber was monitored. The gel time is defined as a 4°C temperature rise from the initial temperature of 40°C.

In the case of “[(C8H17)3NCH3]4{(C6H5P)2Mo5O21} [Example 5]”, in series [1], the soluble in cyclohexane entry is reported as “soluble” and the soluble in dicyclopentadiene entry is listed as “soluble”. For the same substance, the Hexane soluble in series [2] (numeric bound) was < 5%.

Regarding “[(C12H25)3NH4{(C6H5P)2Mo5O21} [Example 34]”, in series [1], the soluble in cyclohexane entry is “soluble” and the soluble in hexane entry is “soluble”.

For “[(C12H25)3NH]2{(C6H4O2)2MoO2} [Example 32]”, the soluble in cyclohexane entry in series [1] was “soluble”.

Turning to “[(C12H25)3NH]2{(H3NC6H4P)2Mo5O21} [Example 16]”, in series [1], the soluble in cyclohexane result is on record as “soluble” and the soluble in hexane result was “soluble”. Moreover, in series [2] (result in words), the Hexane soluble entry was “soluble”.

In the case of “[(C12H25)3NH]2{[(OOC)CH2CH(O)(COO)]2Mo4O12} [Example 30]”, in series [1], the soluble in cyclohexane result was “soluble” and the soluble in hexane result is given as “soluble”.

Regarding “[(C12H25)3NH]2{[Br2C6H2(O)(COO)]2MoO2} [Example 29]”, in series [1], the soluble in cyclohexane entry is “soluble” and the soluble in hexane result is recorded as “soluble”.

Consider “[(C12H25)3NH]2{[C6H4(O)(COO)]2Mo2O5} [Example 24]”, for which, in series [1], the soluble in cyclohexane result was “soluble” and the soluble in hexane result is listed as “soluble”.

For “[(C12H25)3NH]2{[C10H6(O)(COO)]2Mo2O5} [Example 27]”, in series [1], the soluble in cyclohexane entry was “soluble” and the soluble in hexane entry is reported as “soluble”.

As to “[(C12H25)3NH]2{[CH3C6H3(O)(COO)]2Mo2O5} [Example 28]”, in series [1], the soluble in cyclohexane result is reported as “soluble” and the soluble in hexane entry was “soluble”.

Take “[(C12H25)3NH]2{[CH3CH(O)(COO)]2Mo2O5} [Example 23]”: in series [1], the soluble in cyclohexane entry is “soluble” and the soluble in hexane result is reported as “soluble”.

Regarding “[(C12H25)3NH]4{(C4H9P)2Mo5O21} [Example 17]”, in series [1], the soluble in cyclohexane entry is given as “readily soluble” and the “soluble in hot hexane” value was “readily soluble”. Also, the Hexane soluble entry in series [2] (result in words) is given as “soluble”.

“[(C12H25)3NH]4{(C6H5OP)2Mo5O21} [Example 12]”: in series [1], the soluble in dicyclopentadiene result is reported as “readily soluble” and the soluble in hexane result is reported as “readily soluble”. Further, in series [2] (numeric bound), the Hexane soluble is recorded as > 99%.

In turn, “[(C12H25)3NH]4{(C6H5P)2Mo5O21} [Example 1]” gave a gel time in series [3] of 4.4 min.

“[(C12H25)3NH]4{(C6H5P)2Mo5O21} [Example 2]”: the gel time in series [3] is 3.7 min. Besides, in series [1], the soluble in dicyclopentadiene result is recorded as “readily soluble” and the soluble in hexane entry was “readily soluble”. Moreover, the Hexane soluble in series [2] (numeric bound) is > 99%.

“[(C12H25)3NH]4{(C6H5P)2Mo5O21} [Example 10]”: in series [1], the soluble in dicyclopentadiene entry is “readily soluble” and the soluble in hexane result is “readily soluble”.

“[(C12H25)3NH]4{(C6H5P)2Mo5O21} [Example 19]”: in series [1], the soluble in dicyclopentadiene entry is “readily soluble” and the soluble in hexane entry is on record as “readily soluble”.

“[(C12H25)3NH]4{(C6H5P)2Mo5O21} [Example 33]”: in series [1], the soluble in cyclohexane entry is on record as “soluble” and the soluble in hexane result is recorded as “soluble”.

“[(C12H25)3NH]4{(C6H5P)2Mo5O21} [Example 35]”: in series [1], the soluble in cyclohexane entry is given as “soluble” and the soluble in hexane entry is “soluble”.

For the substance “[(C12H25)3NH]4{(C6H5P)2W5O21} [Example 9]”, in series [1], the soluble in dicyclopentadiene result is “soluble” and the soluble in hexane entry was “soluble”. Also, the Hexane soluble in series [2] (numeric bound) is reported as > 99%.

“[(C12H25)3NH]4{(CH3)3CP)2Mo5O21} [Example 8]”: the “soluble in cyclohexane/hexane mixture” value in series [1] (cyclohexane/hexane mixture) is “soluble”. The Hexane soluble entry in series [2] (result in words) is reported as “soluble”.

In the case of “[(C12H25)3NH]4{(CH3P)2Mo5O21} [Example 15]”, in series [1], the soluble in cyclohexane entry is on record as “soluble” and the “soluble in hot hexane” value is listed as “soluble”. Further, the Hexane soluble result in series [2] (result in words) is “soluble”.

As to “[(C12H25)3NH]4{(HOP)2Mo5O21} [Example 38]”, in series [1], the soluble in cyclohexane result was “soluble” and the soluble in hexane result was “soluble”.

For “[(C12H25)3NH]4{(HP)2Mo5O21} [Example 20]”, the soluble in cyclohexane result in series [1] is on record as “soluble”.

As to “[(C12H25)3NH]4{[(HOCH2)2CHOP)]2Mo5O21} [Example 13]”, in series [1], the soluble in dicyclopentadiene result is given as “readily soluble” and the soluble in hexane result is recorded as “readily soluble”. In series [2] (numeric bound), the Hexane soluble was > 99%.

Take “[(C12H25)3NH]4{[C6H4(O)(COO)]2Mo4O12} [Example 26]”: in series [1], the soluble in cyclohexane result is “soluble” and the soluble in hexane entry is listed as “soluble”.

With “[(C12H25)3NH]4{[CH3CH(O)(COO)]2Mo4O12} [Example 22]”, in series [1], the soluble in cyclohexane entry is “soluble” and the soluble in hexane entry is on record as “soluble”.

On to “[(C18H37)0.65C16H33)0.35(C14H29)0.05NH]4{(C6H5P)2Mo5O21} [Example 7]”, for which, in series [1], the soluble in cyclohexane result was “soluble”, the soluble in dicyclopentadiene entry is “soluble” and the soluble in hexane result is listed as “soluble”. In series [2] (numeric bound), the Hexane soluble is > 99%.

Substance “[(i-C8H17)3NH]4{(C6H5P)2Mo5O21} [Example 4]” showed a gel time in series [3] of 2.5 min. In addition, in series [1], the soluble in cyclohexane entry was “readily soluble” and the “soluble in hot hexane” value is “readily soluble”. Further, the Hexane soluble in series [2] (numeric bound) was < 5%.

As to “[(i-C10H21)3NH]4{(C6H5P)2Mo3O21} [Example 3]”, the gel time in series [3] stood at 3.4 min. In series [1], the soluble in dicyclopentadiene entry is listed as “readily soluble” and the soluble in hexane result was “readily soluble”. Further, the Hexane soluble in series [2] (numeric bound) was > 99%.

As for “[C12H25NH]4{[HOC(O)CH2CH2P]2Mo5O21]} [Example 14]”, the Hexane soluble entry in series [2] (result in words) is reported as “soluble”.
